Results published in patent publication US9309263B2, “Fused multi-cyclic sulfone compounds as inhibitors of beta-secretase and methods of use thereof” (AMGEN INC., priority 2013, dated 2016).
Read-outs that look alike come from different tables or passages of the source.

Experiments:
Cathepsin D (Cat D) = Cathepsin D (Cat D) (Homo sapiens, UniProt P07339); assay: In vitro enzymatic Cathepsin D (Cat D) FRET assay; assay type: biochemical
Method in brief: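 FRET peptide substrate (20 nM) is cleaved by CHO-derived recombinant enzyme (9 nM) for 1 h after a 1 h inhibitor pre-incubation, at pH 3.5 in citrate buffer with 5 mM CHAPS and 10% DMSO. Tris addition ends the reaction; fluorescence measured at 500 nm excitation, 580 nm emission.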

[1] = system: Aβ 40 in conditioned medium of cells stably expressing Amyloid Precursor Protein (APP); assay: In vitro BACE cell-based assay (Aβ 40 sandwich ELISA); conditions: Homo sapiens, HEK293
Method in brief: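 Aβ40 in conditioned medium measured by pAb40/biotin-6E10 sandwich ELISA with time-resolved europium fluorescence, after 24 h exposure of stable APP cells to compounds (10-point series starting 100 μM or 10 μM; 0.1% DMSO). IC50 fitted from percent of control against concentration.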

[2] = target: Beta Secretase enzyme (BACE) (Homo sapiens, UniProt P56817); assay: In vitro enzymatic BACE FRET assay; assay type: biochemical; conditions: read-out: BACE1 FRET assay IC50
Chain of Beta Secretase enzyme (BACE) (P56817 46-501): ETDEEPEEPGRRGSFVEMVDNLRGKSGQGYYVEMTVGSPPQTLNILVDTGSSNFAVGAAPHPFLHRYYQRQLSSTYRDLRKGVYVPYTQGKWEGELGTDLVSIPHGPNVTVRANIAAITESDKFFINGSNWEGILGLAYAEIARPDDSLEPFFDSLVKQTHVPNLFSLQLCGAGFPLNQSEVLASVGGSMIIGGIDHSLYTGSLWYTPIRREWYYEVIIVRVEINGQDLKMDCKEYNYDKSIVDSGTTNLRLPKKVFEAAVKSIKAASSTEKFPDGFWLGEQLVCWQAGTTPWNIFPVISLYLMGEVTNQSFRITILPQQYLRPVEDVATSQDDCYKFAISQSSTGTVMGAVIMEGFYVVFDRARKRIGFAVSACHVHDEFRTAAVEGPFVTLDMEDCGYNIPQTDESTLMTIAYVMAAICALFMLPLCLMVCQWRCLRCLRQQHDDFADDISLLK
Method in brief: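 Cleavage of a quenched 50 nM FRET peptide substrate, read as fluorescence (excitation 488 nm, […]) after 1 h and Tris quench to neutrality. Buffer: 0.05 M acetate pH 4.2 with 10% DMSO and 100 uM genapol. Inhibitor dilutions were pre-incubated 1 h with 0.2 nM enzyme.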

[3] = text summary referring to data in Table 2
[4] = Cathepsin D FRET assay, read-out: CatD IC50
[5] = average IC50, HEK cell assay, Aβ 40 readout
[6] = average IC50, in vitro enzymatic BACE FRET assay

Chain of Cathepsin D (Cat D) (P07339 65-412, species assumed): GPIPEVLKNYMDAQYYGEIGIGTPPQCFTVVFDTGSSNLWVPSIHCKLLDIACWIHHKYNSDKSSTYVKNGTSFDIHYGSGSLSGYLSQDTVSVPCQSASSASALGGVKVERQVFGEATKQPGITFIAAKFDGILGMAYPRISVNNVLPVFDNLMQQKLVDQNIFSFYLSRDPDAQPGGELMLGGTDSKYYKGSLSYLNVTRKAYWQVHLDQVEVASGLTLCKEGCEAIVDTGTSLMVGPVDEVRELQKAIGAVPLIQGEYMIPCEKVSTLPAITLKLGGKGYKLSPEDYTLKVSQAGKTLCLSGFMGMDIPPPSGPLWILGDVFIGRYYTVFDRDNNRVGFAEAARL

SMILES | IC50 (Cathepsin D (Cat D); read-out: CatD IC50) | IC50 (Cathepsin D (Cat D); [3]) | IC50 ([1]; HEK cell, average IC50) | IC50 ([2]; average IC50) | IC50 (Cathepsin D (Cat D); [4]) | IC50 [1, 5] | IC50 [2, 6] | IC50 ([1]; HEK cells, average IC50)
CCc1ccc(C(=O)Nc2ccc3c(c2)[C@@]2(C)N=C(N)C(C)(C)S(=O)(=O)[C@@H]2CCO3)nc1 [Example 29, N-((4aR,11bR)-2-amino-3,3,11b-trimethyl-4,4-dioxido-4a,5,6,11b-tetrahydro-3H-[1]benzoxepino[4,5-b][1,4]thiazin-10-yl)-5-ethyl-2-pyridinecarboxamide] | 1370 µM | > 1200 µM | 0.01 µM | 0.038 µM |  |  |  | 
CC1(C)C(N)=N[C@]2(C)c3cc(Nc4nccc5cc(C#N)cnc45)ccc3CCC[C@H]2S1(=O)=O [Example 47, 8-(((4aR,11bR)-2-amino-3,3,11b-trimethyl-4,4-dioxido-3,4a,5,6,7,11b-hexahydrobenzo[3,4]cyclohepta[1,2-b][1,4]thiazin-10-yl)amino)-1,7-naphthyridine-3-carbonitrile] | 338 µM |  | 0.042 µM | 0.008 µM |  |  |  | 
C[C@H]1C[C@@H]2[C@](CF)(N=C(N)C(C)(C)S2(=O)=O)c2cc(Nc3nccc4cc(C#N)cnc34)ccc2O1 [Example 110, 8-(((4aR,6S,11bS)-2-amino-11b-(fluoromethyl)-3,3,6-trimethyl-4,4-dioxido-4a,5,6,11b-tetrahydro-3H-[1]benzoxepino[4,5-b][1,4]thiazin-10-yl)amino)-1,7-naphthyridine-3-carbonitrile] |  |  |  |  | > 400 µM | 0.021 µM | 0.013 µM | 
C#CCOc1cnc2c(Nc3ccc4c(c3)[C@@]3(C)N=C(N)C(C)(C)S(=O)(=O)[C@@H]3CC(C)(C)O4)nccc2n1 [Example 141, (4aR,11bR)-3,3,6,6,11b-pentamethyl-N^~10^~-(2-(2-propyn-1-yloxy)pyrido[3,4-b]pyrazin-5-yl)-4a,5,6,11b-tetrahydro-3H-[1]benzoxepino[4,5-b][1,4]thiazine-2,10-diamine 4,4-dioxide] |  |  |  |  | 385 µM | 0.017 µM | 0.004 µM | 
Cc1cc(Cl)cnc1C(=O)Nc1cnc2c(c1)[C@@]1(C)N=C(N)C3(CCC3)S(=O)(=O)[C@H]1CCO2 [Example 58, N-((4a′S,11b′R)-2′-amino-11b′-methyl-4′,4′-dioxido-4a′,5′,6′,11b′-tetrahydrospiro[cyclobutane-1,3′-pyrido[3′,2′:6,7]oxepino[4,5-b][1,4]thiazin]-10′-yl)-5-chloro-3-methyl-2-pyridinecarboxamide] | 656 µM |  | 0.011 µM | 0.014 µM |  |  |  | 
CC#CCOc1cnc(C(=O)Nc2ccc3c(c2)[C@@]2(C)N=C(N)C(C)(C)S(=O)(=O)[C@@H]2CC(C)(C)O3)cn1 [Example 98, N-((4aR,11bR)-2-amino-3,3,6,6,11b-pentamethyl-4,4-dioxido-4a,5,6,11b-tetrahydro-3H-[1]benzoxepino[4,5-b][1,4]thiazin-10-yl)-5-(2-butyn-1-yloxy)-2-pyrazinecarboxamide] |  |  |  |  | 318 µM | 0.0005 µM | 0.002 µM | 
COc1cnc2c(Nc3ccc4c(c3)[C@@]3(C)N=C(N)C(C)(C)S(=O)(=O)[C@@H]3CCO4)ncnc2c1 [Example 162, (4aR,11bR)-N^~10^~-(7-methoxypyrido[3,2-d]pyrimidin-4-yl)-3,3,11b-trimethyl-4a,5,6,11b-tetrahydro-3H-[1]benzoxepino[4,5-b][1,4]thiazine-2,10-diamine 4,4-dioxide] | 619 µM |  |  | 0.007 µM |  |  |  | 0.009 µM
COc1cnc(C(=O)Nc2ccc3c(c2)[C@@]2(C)N=C(N)C(C)(C)S(=O)(=O)[C@@H]2CCO3)c(Cl)c1 [Example 173, N-((4aR,11bR)-2-amino-3,3,11b-trimethyl-4,4-dioxido-4a,5,6,11b-tetrahydro-3H-[1]benzoxepino[4,5-b][1,4]thiazin-10-yl)-3-chloro-5-methoxy-2-pyridinecarboxamide] | > 400 µM |  |  | 0.005 µM |  |  |  | 0.007 µM
CC1(C)C(N)=N[C@]2(C)c3cc(Nc4ncnc5cc(Cl)cnc45)ccc3OCC[C@H]2S1(=O)=O [Example 176, (4aR,11bR)-N^~10^~-(7-chloropyrido[3,2-d]yrimidin-4-yl)-3,3,11b-trimethyl-4a,5,6,11b-tetrahydro-3H-[1]benzoxepino[4,5-b][1,4]thiazine-2,10-diamine 4,4-dioxide] | 186 µM |  |  | 0.008 µM |  |  |  | 0.011 µM
CC1(C)C(N)=N[C@]2(C)c3cc(NC(=O)c4ccc(Cl)cn4)ccc3OCC[C@H]2S1(=O)=O [Example 186, N-((4aR,11bR)-2-amino-3,3,11b-trimethyl-4,4-dioxido-4a,5,6,11b-tetrahydro-3H-[1]benzoxepino[4,5-b][1,4]thiazin-10-yl)-5-chloro-2-pyridinecarboxamide] | 279 µM |  |  | 0.006 µM |  |  |  | 0.01 µM
CC1(C)C(N)=N[C@]2(C)c3cc(Nc4ncnc5cc(OCC6CC6)cnc45)ccc3OCC[C@H]2S1(=O)=O [Example 167, (4aR,11bR)-N1^~10^~-(7-(cyclopropylmethoxy)pyrido[3,2-d]pyrimidin-4-yl)-3,3,11b-trimethyl-4a,5,6,11b-tetrahydro-3H-[1]benzoxepino[4,5-b][1,4]thiazine-2,10-diamine 4,4-dioxide] | 384 µM |  |  | 0.008 µM |  |  |  | 0.029 µM
Cc1cnc(COc2cnc(C(=O)Nc3ccc4c(c3)[C@@]3(C)N=C(N)C(C)(C)S(=O)(=O)[C@@H]3C[C@H](C)O4)cn2)o1 [Example 80, N-((4aR,6S,11bR)-2-amino-3,3,6,11b-tetramethyl-4,4-dioxido-4a,5,6,11b-tetrahydro-3H-[1]benzoxepino[4,5-b][1,4]thiazin-10-yl)-5-((5-methyl-1,3-oxazol-2-yl)methoxy)-2-pyrazinecarboxamide] | 1490 µM | > 1200 µM | 0.001 µM | 0.004 µM |  |  |  | 
Cc1cc(C#CC2CC2)cnc1C(=O)Nc1ccc2c(c1)[C@@]1(C)N=C(N)C(C)(C)S(=O)(=O)[C@@H]1CCO2 [Example 83, N-((4aR,11bR)-2-amino-3,3,11b-trimethyl-4,4-dioxido-4a,5,6,11b-tetrahydro-3H-[1]benzoxepino[4,5-b][1,4]thiazin-10-yl)-5-(cyclopropylethynyl)-3-methyl-2-pyridinecarboxamide] |  | > 800 µM |  |  | 954 µM | 0.009 µM | 0.006 µM | 
CC1(C)C(N)=N[C@]2(C)c3cc(NC(=O)c4ccc(OCC5CC5)cn4)ccc3OCC[C@H]2S1(=O)=O [Example 175, N-((4aR,11bR)-2-amino-3,3,11b-trimethyl-4,4-dioxido-4a,5,6,11b-tetrahydro-3H-[1]benzoxepino[4,5-b][1,4]thiazin-10-yl)-5-(cyclopropylmethoxy)-2-pyridinecarboxamide] | 1510 µM |  |  | 0.009 µM |  |  |  | 0.017 µM
Cc1cc(C#N)cnc1C(=O)Nc1ccc2c(c1)[C@@]1(C)N=C(N)C(C)(C)S(=O)(=O)[C@@H]1CCO2 [Example 192, N-((4aR,11bR)-2-amino-3,3,11b-trimethyl-4,4-dioxido-4a,5,6,11b-tetrahydro-3H-[1]benzoxepino[4,5-b][1,4]thiazin-10-yl)-5-cyano-3-methyl-2-pyridinecarboxamide] | 434 µM |  |  | 0.002 µM |  |  |  | 0.001 µM
C[C@H]1C[C@@H]2[C@](C)(N=C(N)C(C)(C)S2(=O)=O)c2cc(NC(=O)c3cnc(OCc4ccn(C)n4)cn3)ccc2O1 [Example 82, N-((4aR,6S,11bR)-2-amino-3,3,6,11b-tetramethyl-4,4-dioxido-4a,5,6,11b-tetrahydro-3H-[1]benzoxepino[4,5-b][1,4]thiazin-10-yl)-5-((1-methyl-1H-pyrazol-3-yl)methoxy)-2-pyrazinecarboxamide] |  |  |  |  | 583 µM | 0.009 µM | 0.005 µM | 
CC1(C)C(N)=N[C@]2(CF)c3cc(NC(=O)c4cnc(C(F)(F)F)cn4)ccc3OCC[C@@H]2S1(=O)=O [Example 120, N-((4aS,11bS)-2-amino-11b-(fluoromethyl)-3,3-dimethyl-4,4-dioxido-4a,5,6,11b-tetrahydro-3H-[1]benzoxepino[4,5-b][1,4]thiazin-10-yl)-5-(trifluoromethyl)-2-pyrazinecarboxamide] |  |  |  |  | 752 µM | 0.148 µM | 0.082 µM | 
COc1cnc2c(Nc3ccc4c(c3)[C@@]3(C)N=C(N)C(C)(C)S(=O)(=O)[C@H]3CCO4)nccc2n1 [Example 159, (4aS,11bR)-N^~10^~-(2-methoxypyrido[3,4-b]pyrazin-5-yl)-3,3,11b-trimethyl-4a,5,6,11b-tetrahydro-3H-[1]benzoxepino[4,5-b][1,4]thiazine-2,10-diamine 4,4-dioxide] |  |  |  |  | > 400 µM | 0.052 µM | 0.075 µM | 
Cc1cc(C(F)(F)F)cnc1C(=O)Nc1ccc2c(c1)[C@@]1(C)N=C(N)C(C)(C)S(=O)(=O)[C@@H]1CC(C)(C)O2 [Example 113, N-((4aR,11bR)-2-amino-3,3,6,6,11b-pentamethyl-4,4-dioxido-4a,5,6,11b-tetrahydro-3H-[1]benzoxepino[4,5-b][1,4]thiazin-10-yl)-3-methyl-5-(trifluoromethyl)-2-pyridinecarboxamide] |  |  |  |  | 1200 µM | 0.002 µM | 0.006 µM | 
